# From EPA's ToxRefDB 2
# Key:
# rat [1] = conditions: Chronic toxicity, sprague dawley, Oral, Gavage/Intubation, dose end: 6 month, group: systemic
# rat [2] = conditions: Sub-acute repeat dose toxicity, sprague dawley, Oral, Gavage/Intubation, dose end: 28 day, group: systemic
# rat [3] = conditions: Chronic toxicity; sprague dawley; Oral; Gavage/Intubation; dose end: 6 month; group: systemic; systemic / clinical chemistry / alanine aminotransferase (alt/sgpt) / alanine aminotransferase (alt/sgpt) + systemic / clinical chemistry / …
# rat [4] = conditions: Fertility (Segment I), sprague dawley, Oral, Gavage/Intubation, dose end: 49 day
# mouse = conditions: Sub-acute repeat dose toxicity, cd1, Oral, Gavage/Intubation, dose end: 4 week, group: systemic
# rat [5] = conditions: Fertility (Segment I), sprague dawley, Oral, Gavage/Intubation, dose end: 7 GD
# rat [6] = conditions: Prenatal developmental toxicity study, sprague dawley, Oral, Gavage/Intubation, dose end: 17 GD, group: maternal
# rat [7] = conditions: Fertility (Segment I), sprague dawley, Oral, Gavage/Intubation, dose end: 7 GD; remark: listed apart in the source
# [8] = systemic / clinical chemistry / albumin / albumin + systemic / clinical chemistry / alkaline phosphatase (alp/alk) / alkaline phosphatase (…
# [9] = systemic / clinical chemistry / albumin / albumin + systemic / clinical chemistry / aspartate aminotransferase (ast/sgot) / aspartate …
# [10] = systemic / clinical chemistry / alanine aminotransferase (alt/sgpt) / alanine aminotransferase (alt/sgpt) + systemic / clinical chemistry / …
# [11] = systemic / clinical chemistry / alanine aminotransferase (alt/sgpt) / alanine aminotransferase (alt/sgpt) + systemic / in life observation…
# [12] = group: maternal, reproductive / reproductive performance / fertility / fertility + reproductive / reproductive performance / pregnancy index / pregnancy …
# [13] = group: parental, systemic / in life observation / body weight / body weight + systemic / in life observation / body weight / body weight gain + systemic / in…
# [14] = systemic / in life observation / clinical signs / alopecia + systemic / in life observation / clinical signs / external lesion(s) + systemic…
# [15] = systemic / in life observation / clinical signs / scabbing + systemic / in life observation / body weight / body weight + systemic / in life…
# [16] = group: maternal, reproductive / offspring survival early / litter viability other / total litter loss + reproductive / reproductive performance / estrous …
# [17] = group: maternal, reproductive / reproductive performance / fertility / fertility + reproductive / reproductive performance / precoital interval / precoital …
# [18] = group: parental, systemic / in life observation / clinical signs / alopecia + systemic / in life observation / body weight / body weight gain + systemic / in…
# [19] = reproductive / reproductive performance / implantations / implantations + reproductive / reproductive performance / postimplantation loss / …
# [20] = systemic / in life observation / body weight / body weight + systemic / in life observation / body weight / body weight gain + systemic / in…
# [21] = group: maternal, reproductive / reproductive performance / estrous cycle / abnormal + reproductive / reproductive performance / estrous cycle / corpora lutea…
# [22] = group: maternal, reproductive / reproductive performance / implantations / implantations
# [23] = group: parental, systemic / in life observation / body weight / body weight gain + systemic / in life observation / clinical signs / abnormal respiratory …
compound,measurement,setting,value
CCc1c(C(=O)NN2CCCCC2)nn(-c2ccc(Cl)cc2Cl)c1-c1ccc(Br)cc1 [Surinabant],LOAEL,rat [1]; [8],> 100 mg/kg/day
same,NOAEL,rat [1]; [8],≥ 100 mg/kg/day
same,LEL,rat [1]; [9],10 mg/kg/day
same,NEL,rat [1]; [9],< 10 mg/kg/day
same,LOAEL,rat [2]; [10],> 300 mg/kg/day
same,NOAEL,rat [2]; [10],≥ 300 mg/kg/day
same,LEL,rat [2]; [11],30 mg/kg/day
same,NEL,rat [2]; [11],< 30 mg/kg/day
same,LEL,rat [3],30 mg/kg/day
same,LOAEL,rat [3],> 60 mg/kg/day
same,NEL,rat [3],< 30 mg/kg/day
same,NOAEL,rat [3],≥ 60 mg/kg/day
same,LEL,rat [4]; [12],300 mg/kg/day
same,LOAEL,rat [4]; [12],300 mg/kg/day
same,NEL,rat [4]; [12],100 mg/kg/day
same,NOAEL,rat [4]; [12],100 mg/kg/day
same,LEL,rat [4]; [13],100 mg/kg/day
same,NEL,rat [4]; [13],< 100 mg/kg/day
same,LOAEL,"rat [4]; group: parental, systemic / pathology gross / sperm measure / sperm count",300 mg/kg/day
same,NOAEL,"rat [4]; group: parental, systemic / pathology gross / sperm measure / sperm count + systemic / in life observation / body weight / body weight + systemic / in life …",100 mg/kg/day
same,LOAEL,mouse; [14],> 4000 mg/kg/day
same,NOAEL,mouse; [14],≥ 4000 mg/kg/day
same,LEL,mouse; [15],1000 mg/kg/day
same,NEL,mouse; [15],< 1000 mg/kg/day
same,LOAEL,rat [5]; [16],> 1000 mg/kg/day
same,NOAEL,rat [5]; [16],≥ 1000 mg/kg/day
same,LEL,rat [5]; [17],10 mg/kg/day
same,NEL,rat [5]; [17],< 10 mg/kg/day
same,LEL,rat [5]; [18],10 mg/kg/day
same,LOAEL,rat [5]; [18],> 1000 mg/kg/day
same,NEL,rat [5]; [18],< 10 mg/kg/day
same,NOAEL,rat [5]; [18],≥ 1000 mg/kg/day
same,LOAEL,rat [6]; [19],> 100 mg/kg/day
same,NOAEL,rat [6]; [19],≥ 100 mg/kg/day
same,LEL,rat [6]; [20],10 mg/kg/day
same,NEL,rat [6]; [20],< 10 mg/kg/day
same,LOAEL,rat [7]; [21],50 mg/kg/day
same,NOAEL,rat [7]; [21],10 mg/kg/day
same,LEL,rat [7]; [22],10 mg/kg/day
same,NEL,rat [7]; [22],< 10 mg/kg/day
same,LEL,rat [7]; [23],10 mg/kg/day
same,LOAEL,rat [7]; [23],> 100 mg/kg/day
same,NEL,rat [7]; [23],< 10 mg/kg/day
same,NOAEL,rat [7]; [23],≥ 100 mg/kg/day
